Patent US12410160B2 (Gilead Sciences, Inc., priority 2021, dated 2025)
Read-outs that look alike come from different tables or passages of the source.

Key:
[1] = pKa analysis by capillary electrophoresis (pKa PRO Analyzer, co-solvent method); type: physicochemical; settings: co-solvent method (60% to 30% methanol buffers); for pKa: methanol/aqueous co-solvent buffers
Description: The 10 mM DMSO stock solutions of test articles (TAs) were diluted 100-fold with either 2 mM HCl or 2 mM NaOH and methanol. The final concentration of methanol was 60%, TA concentration was 100 μM, and DMSO concentration was 1%. The TAs were transferred into 24 consecutive wells of a 96-well plate for analysis using the co-solvent method. […] All data was obtained using a pKa. PRO Analyzer (AATI, Ankey, IA) by performing four consecutive CE runs from 60% to 30% co-solvent buffers. Norfloxacin was used as a daily performance-indicating standard. The pKa values were predicted by using pKa. Estimator® software (AATI, Ankey, IA) by relating molecular weight of the TA to its mobility.

human KHK-C = human KHK-C (Homo sapiens (Human), UniProt P50053); experiment: KHK Biochemical Assay (IC50), ADP-Glo, KHK-C; settings: average of at least two separate assays
Procedure, shortened: (§1)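 ADP-Glo luminescence measured ADP made over a 4 h room-temperature reaction of ATP plus fructose, started after 30 min compound–enzyme pre-incubation. Buffer: 50 mM Hepes pH 7.4, 140 mM KCl, 5 mM MgCl2, 0.01% Triton-X. Enzyme was His-tagged, BL21 (DE3)-expressed, Ni-NTA-purified; compounds in 1:3 DMSO dilution series.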

human KHK-A = human KHK-A (Homo sapiens (Human), UniProt P50053); experiment: KHK Biochemical Assay (IC50), ADP-Glo, KHK-A; settings: average of at least two separate assays
Procedure, shortened: as §1

HepG2 cells = experiment: F1P Cell-Based Assay (EC50), 13C6-fructose-1-phosphate in HepG2 cells (cell culture medium or 50% human plasma)
human OATP1B1 = human OATP1B1 (Homo sapiens (Human), UniProt Q9Y6L6); experiment: In Vitro Inhibition Assessment with Human OATP1B1 Transporter; type: in vitro ADME; settings: HEK293-OATP1B1 cells, probe substrate pravastatin
Procedure, shortened: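 Pravastatin uptake was measured by LC-MS/MS after a 5 min exposure with inhibitor, following a 15 min inhibitor preincubation, in transfected versus mock HEK293 cells. Transport activity was derived as (transfected − mock) with compound over the same difference with solvent. IC50 is the concentration halving maximal activity; final DMSO was 0.4%.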

[2] = molecular target: KHK-C expressed in NRK-52E cells (Homo sapiens (Human), UniProt P50053); experiment: KHK-C Cell-based Assay (EC50), NRK CTG, fructose-mediated ATP-depletion
[3] = pH range 1.7-11.2, read-out: 1st pKa
[4] = Homo sapiens, HepG2, HepG2 cells, 50% human plasma, read-out: F1P 50% HP EC50
[5] = Homo sapiens, HepG2, read-out: F1P 10% FBS EC50, HepG2 cells, cell culture medium (10% FBS)
[6] = pH range 1.7-11.2, read-out: 2nd pKa

Chain of human OATP1B1 (Q9Y6L6 whole entry): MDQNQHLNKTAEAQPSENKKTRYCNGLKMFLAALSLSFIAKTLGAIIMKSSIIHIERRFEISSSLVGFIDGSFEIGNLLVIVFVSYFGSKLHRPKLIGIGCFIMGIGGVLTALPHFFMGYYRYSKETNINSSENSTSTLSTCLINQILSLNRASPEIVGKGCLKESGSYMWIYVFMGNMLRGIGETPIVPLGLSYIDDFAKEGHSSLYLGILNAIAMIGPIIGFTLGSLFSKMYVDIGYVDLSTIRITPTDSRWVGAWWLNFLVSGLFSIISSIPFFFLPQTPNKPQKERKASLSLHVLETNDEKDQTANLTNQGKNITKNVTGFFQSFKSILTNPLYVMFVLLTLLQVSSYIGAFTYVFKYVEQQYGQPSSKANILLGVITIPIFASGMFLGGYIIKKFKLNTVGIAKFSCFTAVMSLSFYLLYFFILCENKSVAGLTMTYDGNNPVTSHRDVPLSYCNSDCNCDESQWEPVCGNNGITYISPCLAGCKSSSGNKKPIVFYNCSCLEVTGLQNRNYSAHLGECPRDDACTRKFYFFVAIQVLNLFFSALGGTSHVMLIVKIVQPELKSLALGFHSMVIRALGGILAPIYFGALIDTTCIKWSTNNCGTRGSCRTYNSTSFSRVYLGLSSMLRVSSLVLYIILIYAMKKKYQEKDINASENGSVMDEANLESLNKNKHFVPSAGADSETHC
Chain of KHK-C expressed in NRK-52E cells (P50053 whole entry): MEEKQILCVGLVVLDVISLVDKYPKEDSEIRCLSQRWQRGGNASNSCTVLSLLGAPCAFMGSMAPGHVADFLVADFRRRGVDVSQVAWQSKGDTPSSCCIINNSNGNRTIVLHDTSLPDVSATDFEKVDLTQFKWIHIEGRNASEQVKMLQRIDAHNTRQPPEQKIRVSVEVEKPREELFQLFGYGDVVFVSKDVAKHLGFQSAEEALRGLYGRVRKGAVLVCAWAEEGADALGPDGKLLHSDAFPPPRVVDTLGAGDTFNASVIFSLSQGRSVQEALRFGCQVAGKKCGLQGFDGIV
Chain of human KHK-C (P50053 whole entry): as above
Chain of human KHK-A (P50053 other isoform, or with tags, fused parts or gaps): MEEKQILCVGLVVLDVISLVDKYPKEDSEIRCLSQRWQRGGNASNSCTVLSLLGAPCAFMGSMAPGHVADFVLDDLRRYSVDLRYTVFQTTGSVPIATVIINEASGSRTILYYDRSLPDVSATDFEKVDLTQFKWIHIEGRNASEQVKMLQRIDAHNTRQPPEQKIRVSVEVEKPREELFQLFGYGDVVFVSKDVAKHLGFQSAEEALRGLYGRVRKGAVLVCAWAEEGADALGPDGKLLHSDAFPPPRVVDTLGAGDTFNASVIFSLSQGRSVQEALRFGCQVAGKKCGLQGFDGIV

Molecule COc1ccc(-c2nc(N3C[C@@H](O)[C@@H]3C)nc3c2CCC3(F)F)cc1S(N)(=O)=O [Example 763, 5-(7,7-difluoro-2-((2S,3R)-3-hydroxy-2-methylazetidin-1-yl)-6,7-dihydro-5H-cyclopenta[d]pyrimidin-4-yl)-2-methoxybenzenesulfonamide] has a pKa [1, 3] of 1.7, an IC50 (human KHK-C) of 3 nM and an IC50 (human KHK-A) of 3.6 nM. The EC50 (HepG2 cells; [4]) was 8 nM, the EC50 (HepG2 cells; [5]) was 6.9 nM and the IC50 (human OATP1B1) was 2570 nM.
In the case of C[C@H]1[C@H](F)CN1c1nc(-c2ccc([C@@H](N)CS(C)(=O)=O)cc2)c2c(n1)C(F)(F)CC2 (single isomer, unassigned) [Example 789], the “1st pKa” value ([1]; pH range 1.7-11.2) is reported as 6.4, the IC50 (human KHK-C) is reported as 3.9 nM and the IC50 (human KHK-A) is reported as 12.5 nM. It also gave an EC50 (HepG2 cells; HepG2 cells, 50% human plasma, read-out: F1P 50% HP EC50) of 30.6 nM, an EC50 (HepG2 cells; read-out: F1P 10% FBS EC50, HepG2 cells, cell culture medium (10% FBS)) of 22.7 nM and an IC50 (human OATP1B1) of 19700 nM.
C[C@H]1[C@H](O)CN1c1nc(-c2ccc3c(c2)S(=O)(=O)CCNC3)c2c(n1)C(F)(F)CC2 [Example 489] gave a pKa [1, 3] of 5.3, an IC50 (human KHK-C) of 3.5 nM and an IC50 (human KHK-A) of 5.2 nM. It also gave an EC50 (HepG2 cells; [4]) of 20.2 nM, an EC50 (HepG2 cells; [5]) of 16.5 nM and an IC50 (human OATP1B1) of 2670 nM.
C[C@H]1CCN1c1nc2c(c(-c3cccc(C(N)=O)c3)n1)CCC2 [Example 8, (S)-3-(2-(2-methylazetidin-1-yl)-6,7-dihydro-5H-cyclopenta[d]pyrimidin-4-yl)benzamide] showed a pKa [1, 3] of 4.38, an IC50 (human KHK-C; ADP-Glo) of 48.1 nM and an IC50 (human KHK-A; ADP-Glo) of 38.8 nM. For the same molecule, the IC50 (human OATP1B1) was 1320 nM and the EC50 [2] was 128 nM.
In the case of C[C@H]1CCN1c1nc2c(c(-c3ccc4c(c3)CCNC4)n1)CCC2 [Example 379, 6-[2-[(2S)-2-methylazetidin-1-yl]-6,7-dihydro-5H-cyclopenta[d]pyrimidin-4-yl]-1,2,3,4-tetrahydroisoquinoline], the pKa [1, 3] is reported as 4.31, the pKa [1, 6] is reported as 9.19 and the IC50 (human KHK-C; ADP-Glo) is reported as 4.6 nM. For the same molecule, the IC50 (human KHK-A; ADP-Glo) was 4.1 nM, the EC50 (HepG2 cells; [4]) was 3.1 nM and the EC50 (HepG2 cells; [5]) was 1.3 nM. It also gave an EC50 [2] of 2.6 nM.
C[C@H]1[C@H](O)CN1c1nc(-c2ccc([C@]3(N)CCS(=O)(=O)C3)cc2)c2c(n1)C(F)(F)CC2 (single isomer, unassigned) [Example 795] showed a pKa [1, 3] of 4.9, an IC50 (human KHK-C; ADP-Glo) of 4.6 nM and an IC50 (human KHK-A; ADP-Glo) of 24.1 nM. For the same molecule, the EC50 (HepG2 cells; [4]) was 88.8 nM, the EC50 (HepG2 cells; [5]) was 52.7 nM and the EC50 [2] was 54.5 nM.
Molecule NC1(c2ccc(-c3nc(N4CC[C@@H]4C(F)(F)F)nc4c3CCC4(F)F)cc2)CS(=O)(=O)C1 [Example 802, (R)-3-amino-3-(4-(7,7-difluoro-2-(2-(trifluoromethyl)azetidin-1-yl)-6,7-dihydro-5H-cyclopenta[d]pyrimidin-4-yl)phenyl)thietane 1,1-dioxide] has a pKa [1, 3] of 4.6 and an IC50 (human OATP1B1) of 10600 nM.
Molecule C[C@H]1CCN1c1nc2c(c(-c3ccccc3)n1)CCC2 [Example 331, 2-[(2S)-2-methylazetidin-1-yl]-4-phenyl-6,7-dihydro-5H-cyclopenta[d]pyrimidine] has a pKa [1, 3] of 4.14, an IC50 (human KHK-C; ADP-Glo) of 242 nM and an IC50 (human KHK-A; ADP-Glo) of 255 nM. It also gave an EC50 (HepG2 cells; [4]) of 4610 nM, an EC50 (HepG2 cells; [5]) of 253 nM and an EC50 [2] of 384 nM.
With C[C@H]1CCN1c1nc2c(c(-c3ccc4c(=O)[nH]ccc4c3)n1)CCC2 [Example 364, 6-[2-[(2S)-2-methylazetidin-1-yl]-6,7-dihydro-5H-cyclopenta[d]pyrimidin-4-yl]-2H-isoquinolin-1-one] the pKa [1, 3] was 4.32, the IC50 (human KHK-C; ADP-Glo) was 3.3 nM and the IC50 (human KHK-A; ADP-Glo) was 10 nM. It also gave an IC50 (human OATP1B1) of 38.9 nM and an EC50 [2] of 13.1 nM.
For C[C@H]1CCN1c1nc2c(c(-c3ccc(CN)cc3)n1)CCC2 [Example 188, [4-[2-[(2S)-2-methylazetidin-1-yl]-6,7-dihydro-5H-cyclopenta[d]pyrimidin-4-yl]phenyl]methanamine], the pKa [1, 3] was 4.27, the pKa [1, 6] was 9.27 and the IC50 (human KHK-C; ADP-Glo) was 2.1 nM. The IC50 (human KHK-A; ADP-Glo) was 4.2 nM, the IC50 (human OATP1B1) was 10200 nM and the EC50 [2] was 177 nM.
O=S1(=O)CCNCc2ccc(-c3nc(N4CC[C@@H]4CF)nc4c3CCC4(F)F)cc21 [Example 490, (R)-8-(7,7-difluoro-2-(2-(fluoromethyl)azetidin-1-yl)-6,7-dihydro-5H-cyclopenta[d]pyrimidin-4-yl)-2,3,4,5-tetrahydrobenzo[f][1,4]thiazepine 1,1-dioxide] showed a pKa [1, 3] of 5.5, an IC50 (human KHK-C) of 1.2 nM and an IC50 (human KHK-A) of 4.6 nM. The EC50 (HepG2 cells; [4]) was 19.3 nM, the EC50 (HepG2 cells; [5]) was 9.3 nM and the IC50 (human OATP1B1) was 939 nM.
